The assay relates to MDA-MB-468 breast. Description: inhibition of tumour cell growth, NCI panel, 48 h.

“And” between values parts separate entries of the source, which are not always exact repeats. Equal entries are not always repeated.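 Assay format: 96-well plates, 48-hour exposure. Here, GI50 denotes the concentration required for 50% inhibition of growth. Definition used: TGI = concentration required for complete inhibition of growth.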 Where a SMILES comes first, the peptide text is derived from it. [ ]: non-standard residue; d: D form. NMeY = CN[C@@H](Cc1ccc(O)cc1)C(=O)O; dNMeF = CN[C@H](Cc1ccccc1)C(=O)O; Sar = CNCC(=O)O

As to `CN(C)C(=O)c1cc2cnc(Nc3ccc(-c4csc5c(=O)cc(N6CCNCC6)oc45)cc3)nc2n1C1CCCC1`, the GI50 is 0.482 µM and the TGI was 2.53 µM. For the compound `c1ccc(-c2nnc(Nc3ccc4c(c3)OCCO4)o2)c(NCc2ccncc2)c1`, the GI50 was 0.0953 µM and the TGI was 0.528 µM. On to `Cc1cc2c3ccccc3ccc2[n+]2ccccc12`, for which the GI50 is 0.524 µM and the TGI stood at 2.13 µM. As for `CCCCCCCCCCCC[n+]1ccccc1`, the GI50 was 0.252 µM and the TGI came to 2.02 µM. For the compound `O=C1Nc2cc(Cl)ccc2/C1=C\c1ccc(OCc2ccc(Br)cc2F)cc1`, the GI50 was 2.13 µM and the TGI was determined as 5.21 µM. In the case of `CCN(C(=O)CCl)C(C)(C)C(SSSC(c1ccc(Cl)cc1)C(C)(C)N(CC)C(=O)CCl)c1ccc(Cl)cc1` (configuration not stated), the GI50 is 1.97 µM and the TGI worked out at 5.39 µM. Take `C=CC(=O)N1CCC([C@@H]2CCNc3c(C(N)=O)c(-c4ccc(Oc5ccccc5)cc4)nn32)CC1`: the GI50 was 0.057 µM and the TGI turned out to be 0.711 µM.

Turning to `CNC(=O)c1cc(-n2ccc3cc(NC(=O)Nc4ccc(N5CCN(C)CC5)c(C(F)(F)F)c4)ccc32)ccn1`, the GI50 is 3.48 µM and the TGI stood at 7.57 µM. Take `Cc1ccc(N=Nc2c(N)nn(-c3ccccc3)c2N)cc1`: the GI50 is 0.613 µM and the TGI was above 100 µM. Consider `N#Cc1cccc(/C=C(/C(=O)c2ccccc2)c2ccccc2)c1`, for which the GI50 is 2.3 µM and the TGI was 7.63 µM. Regarding `C/C(=N\NC(=O)c1ccccc1O)c1cccc(/C(C)=N/NC(=O)c2ccccc2O)n1`, the GI50 was 0.317 µM and the TGI is above 100 µM. On to `ClC1=NC(Cl)C(Cl)=N/C1=N\c1ncn[nH]1` (configuration not stated), for which the GI50 is 1.6 µM and the TGI was 3.39 µM. As to `CC1(O)CC2(O)C=CC3=C(C(=O)c4cccc(O)c4C3=O)C2(O)C(=O)C1O` (configuration not stated), the GI50 was 0.735 µM and the TGI was found to be 2.09 µM.

Turning to `CC(=O)OC1CCC2(C)C(CCC3C4CC=C(C(C)=O)C4(C)OC(=O)CC32)C1` (configuration not stated), the GI50 is 1.64 µM and the TGI was 3.74 µM.

Take `CCOC(=O)Cn1c(C)c(/C=N/NC(=O)c2cc3c(ccc4ccccc43)o2)c2ccccc21`: the GI50 is 0.326 µM and the TGI came to 1.34 µM. As to `CC1(C)N=C(N)N=C(N)N1c1cccc(CCCCc2ccccc2)c1`, the GI50 was 0.149 µM and the TGI stood at 13.8 µM. As for `CC1(C)CC(=O)c2c(ccc(C(=O)C[C@H](N)CO)c2N)O1`, the TGI was 17.5 µM and 5.83 µM.

With `COc1ccc2[nH]c(=O)c(/C=C/C(=O)/C=C/c3ccc(O)c(OC)c3)cc2c1`, the GI50 is 1.37 µM and the TGI turned out to be 4.58 µM.

With `CCOC(=O)c1ccc(Nc2sc(C(=O)c3cccc([N+](=O)[O-])c3)c(N)c2C#N)cc1`, the GI50 is 0.222 µM and the TGI amounted to 4.53 µM. The corresponding values for `O=c1oc2ccc(Cl)cc2c(=O)n1-c1cc(C(F)(F)F)cc(C(F)(F)F)c1` are 0.236 µM and 0.754 µM. As to `O=C(NC(=S)NNC(=S)NNc1ccccc1)c1ccccc1`, the GI50 was 8.92 µM and the TGI is above 100 µM. With `CC[C@H](C)[C@@H]1NC(=O)[C@H](Cc2ccc(O)cc2)N(C)C(=O)[C@H](Cc2ccccc2)NC(=O)CN(C)C(=O)[C@@H]2CCCN2C(=O)[C@@H](Cc2ccccc2)N(C)C(=O)[C@H](CC(C)C)NC1=O` (cyclo(F[NMeY]IL[dNMeF]P[Sar])), the GI50 is 0.367 µM and the TGI is 2.82 µM. As to `Cc1ncc(C(=O)Nc2ccc(CN3CCN(C)CC3)c(C(F)(F)F)c2)cc1C#Cc1cnc(N)c2ncccc12`, the GI50 was 1.1 µM and the TGI stood at 2.58 µM. Consider `O=C1c2ccccc2-c2n[nH]c3cccc1c23`, for which the GI50 was 17.3 µM and the TGI was above 100 µM. For `CC[C@H](C)[C@H](NC(=O)Nc1ccccc1)C(=O)N(C)[C@H](C[C@@H](OC(C)=O)c1nc(C(=O)N[C@@H](Cc2ccccc2)C[C@H](C)C(=O)OC)cs1)C(C)C`, the GI50 is 0.514 µM and the TGI is 7.22 µM.

Regarding `CO[C@H]1C[C@@H]2CC[C@@H](C)[C@@](O)(O2)C(=O)C(=O)N2CCCC[C@H]2C(=O)O[C@H]([C@H](C)C[C@@H]2CC[C@@H](OP(C)(C)=O)[C@H](OC)C2)CC(=O)[C@H](C)/C=C(\C)[C@@H](O)[C@@H](OC)C(=O)[C@H](C)C[C@H](C)/C=C/C=C/C=C/1C`, the GI50 is below 0.01 µM and the TGI came out at 17.1 µM. For the compound `C[C@H](Nc1ncnc2ccc(-c3cnc(Cl)c(NS(C)(=O)=O)c3)cc12)c1ccccc1`, the GI50 is 0.111 µM and the TGI turned out to be 0.841 µM. Taken in the same sequence, the figures for `C#C[C@@]1(O)[C@@H](CO)O[C@@H](n2ccc3c(N)ncnc32)[C@@H]1O` were 1.3 µM and 3.33 µM. Take `COc1ccc(/C=C/C(=O)c2ccc3cc(OC)c(OC)cc3c2)cc1OC`: the GI50 is 2.68 µM and the TGI was determined as 10.2 µM. `COc1cccc(-n2ncc3c(N/N=C/c4ccc(S(C)(=O)=O)cc4)ncnc32)c1`: the GI50 is 3.66 µM and the TGI turned out to be 16.5 µM. On to `Nc1c(C(=O)c2cccc(C#CCN3CCOCC3)c2)cnn1-c1ccc(F)cc1`, for which the GI50 is 9.82 µM and the TGI is above 25 µM. Take `Cc1ccc(-c2cc3nc(C(Cl)Cl)nc(-c4cccnc4)n3n2)cc1`: the GI50 was 0.407 µM and the TGI was found to be 2.13 µM.

Turning to `Cc1ccc2c(Nc3cccc(Cl)c3F)ncc(NC(=O)c3csc4c(N)ncnc34)c2c1`, the GI50 was above 100 µM and the TGI is above 100 µM. Regarding `COc1ccc2c(c1)sc1nc(-c3ccccc3)c(-c3ccc(O)c(OC)c3)n12`, the GI50 is 24.4 µM and the TGI was above 100 µM.

Turning to `CN1CCN(Cc2ccc(NC(=O)c3nc4ccc5[nH]ncc5c4c4c3CCC4)cc2C(F)(F)F)CC1`, the GI50 is 0.936 µM and the TGI was found to be 2.08 µM. Take `Nc1c(C(=O)c2cccc(CCC3(O)CCCC3)c2)cnn1-c1ccc(F)cc1`: the GI50 is 5.97 µM and the TGI is above 25 µM.

Consider `ICCC(c1ccccc1)(c1ccccc1)c1ccccc1`, for which the GI50 was 3.17 µM and the TGI amounted to 13.3 µM. The corresponding values for `CC1(C)CC(OCCCC[P+](c2ccccc2)(c2ccccc2)c2ccccc2)CC(C)(C)N1O` are 0.331 µM and 2.87 µM. Take `Nc1ccn(C2CC(O)C(CO)O2)c(=O)n1` (configuration not stated): the GI50 was above 5000 µM and the TGI is above 5000 µM. Consider `Nc1nc(N)c2c(ccc3nccc32)[nH]1`, for which the GI50 was 3.28 µM and the TGI came out at 21.3 µM.

With `N#CSCc1c(Cl)cccc1Cl`, the GI50 was 3.82 µM and the TGI was above 100 µM. For `COc1cc(Cn2ccc3c2-c2oncc2CC3)cc(OC)c1`, the GI50 is 0.84 µM and the TGI was 7 µM. As to `C/C(=C(/c1ccc(O)cc1)c1ccc(OCCN2CCCCCC2)cc1)c1ccccc1`, the GI50 is 41.2 µM and the TGI is above 100 µM. As for `COc1ccc(-c2cc(-c3cn[nH]c3-c3ccccn3)ccn2)cc1`, the GI50 is above 25 µM and the TGI was above 25 µM.

Values taken from PubChem BioAssay (NCI).
